Source: US5756510A, “Benzamide analogs useful as PARP (ADP-ribosyltransferase, ADPRT) DNA repair enzyme inhibitors” (Newcastle University Ventures Limited, priority 1994, dated 1998)
Where two headings read alike, the source gives them in different places.

Columns and labels:
PARP = target: T1, PARP (Mus musculus, UniProt P11103); assay: PARP inhibition assay ([32P]-NAD incorporation into TCA-precipitated poly(ADP-ribose) in permeabilised L1210 cells, oligonucleotide activated); assay type: biochemical, L1210 murine leukaemia cells
T1 construct: endogenous in cells; host or cells: L1210 murine leukaemia cells, permeabilised by hypotonic buffer and cold shock
From the text: In principle, the PARP assay used relies upon activating endogenous PARP (as hereinafter described) in cells containing exogenous [^32 P]-NAD^+ introduced therein by suspending the cells in a solution of [^32 P]-NAD^+ to which they have been rendered permeable in an initial pretreatment step. The poly(ADP-ribose) which is then synthesised by the enzyme can be precipitated by trichloracetic acid (TCA) and the amount of radio-labelled ^32 p incorporated therein measured, e.g. using a scintillation counter, to give a measure of the activity of the PARP under the particular conditions of the experiment. By repeating the experiment following the same procedure, and under the same conditions, in the presence of each compound to be tested the reduction in enzyme activity, representative of the inhibitory effect of the test compound, can then be ascertained from the reduction, if any, of the amount of [^32 P] measured in the TCA precipitated poly(ADP-ribose).
Thus, with a range of different compounds a set of comparative values for inhibitory activity can be obtained.
In practice, L1210 murine leukaemia cells were used as the source of the PARP enzyme after being rendered permeable to exogenous [^32 P]NAD by exposure to hypotonic buffer and cold shock. […] This oligonucleotide sequence snaps back on itself to form a double-stranded molecule with a single blunt end and provides an effective substrate for activation of PARP.
The experimental protocol adopted, in which a synthetic oligonucleotide as mentioned above is introduced as a specific activator of PARP, discriminates between PARP and other mono-ADP-ribosyltransferases in the cells.
The oligonucleotide having the palindromic sequence […], synthesised by conventional means, was vacuum dried and stored as pellets in a freezer. Before use, it was made up to 200 μg/ml in 10 mM Tris/HCl, pH 7.8, with each pellet being dissolved completely in […] of buffer. The solution was then heated to 60° C. in a water bath for 15 minutes, and allowed to cool slowly to ensure correct reannealing. After adding 9.5 ml of buffer, the concentration was checked by measuring the optical density of a diluted sample at 260 nm. The main solution was then diluted to a concentration of 200 μg/ml and stored in 500 μl aliquots in a freezer, ready for use.
The L1210 cells used as the source of the PARP enzyme were maintained as a suspension culture in RPMI medium+10% foetal bovine serum+glutamine and antibiotics (penicillin and streptomycin). HEPES and sodium bicarbonate were also added, and the cells were seeded in 100 ml of medium such that there would be a concentration of approximately 8×10^5 /ml at the time of carrying out an assay.
(§1) The solubility of the compound was then checked by adding a quantity of the DMSO solution to a quantity of the isotonic buffer, in the required final proportions that were to be used in carrying out the assay, and after an interval the solution was examined under a microscope for any signs of crystals forming.
A desired quantity of the cells, ascertained by counting with a haemocytometer, was then centrifuged (1500 rpm in a "Europa" model 24M centrifuge for 5 minutes), the supernatant removed, and the pellets obtained were resuspended in 20 ml Dul A at 4° C. before centrifuging again at 1500 rpm and 4° C. After again removing the supernatant, the cells were resuspended at a concentration of 3×10^7 cells/ml in ice cold hypotonic buffer and left for 30 minutes on ice. Nine volumes were then added of ice cold isotonic buffer, and the cells, now rendered permeable to exogenous NAD^+, were then used within the next hour for carrying out an assay.

[1] = solubility check of test compound in assay buffer (DMSO solution added to isotonic buffer, microscope); assay type: physicochemical
From the text: as §1, with “The compounds being tested were generally made up as a concentrated solution in DMSO (Dimethyl sulphoxide). The” for “The”

L1210 cells [2] = assay: growth inhibition assay, alone or with temozolomide; assay type: cell-based, murine; conditions: Mus musculus, L1210, 48 h
Procedure: (§2) Again using cultures of the murine leukaemia L1210 cell line, growth inhibition experiments were carried out to assess the cytostatic effects of the compounds and clonogenic survival assays were performed to assess cytotoxicity, especially in relation to use of the compounds in conjunction with DNA damaging cytotoxic agents such as cytotoxic antitumour drugs or high energy radiation.
At this time one set of replicates would be counted using a Coulter counter (N0), and 48 hours later the remaining samples would be counted (N1). The percentage (%) growth inhibition of drug-treated samples could then be estimated. In drug combination experiments, where evidence of synergistic effects on cell growth or clonogenicity was being sought, a single, fixed concentration of a cytotoxic drug sample, e.g. temozolomide, would be taken as the control value.

L1210 cells [3] = assay: clonogenic survival assay with temozolomide (TM); conditions: 16 hours, ± S.E.
Procedure: as §2
After 7-10 days colonies were stained with 0.5 mg/ml MTT and counted by eye on a gridded light box. Survival curves were plotted and typical DEF10 values obtained are hereinafter given in Table II (DEF10 being defined as the ratio of the concentration of TM that reduces survival to 10% divided by the concentration of TM that reduces survival to 10% in the presence of a fixed concentration of PARP inhibitor). Each DEF10 value in Table II represents the average ratio±S.E. (standard error) derived from the averaged 10% survival for TM alone (675±31 μM from 22 independent survival curves) divided by individual 10% survival values from at least 3 independent survival curves performed in the presence of a fixed concentration of inhibitor.
For NU1025 maximal potentiation of cytotoxicity was obtained by a concentration in the range of 50-100 μM, and was significant at doses as low as 10 μM.

in vitro = conditions: mouse, l1210 cells
Procedure: as §2

[4] = tested on: DNA strand breaks in L1210 cells; assay: DNA strand break assay (alkaline elution); assay type: cell-based, murine
Procedure: as §2
All the compounds were tested for their ability to produce strand breaks when used alone.

[5] = 10 μM, read-out: % Inhibition (PARP)
[6] = 30 μM, read-out: % Inhibition (PARP)
[7] = read-out: % Inhibition (PARP), 10 μM
[8] = read-out: % Inhibition (PARP), 30 μM
[9] = 100 μM, read-out: % Inhibition (PARP)

T1 sequence (P11103 whole entry): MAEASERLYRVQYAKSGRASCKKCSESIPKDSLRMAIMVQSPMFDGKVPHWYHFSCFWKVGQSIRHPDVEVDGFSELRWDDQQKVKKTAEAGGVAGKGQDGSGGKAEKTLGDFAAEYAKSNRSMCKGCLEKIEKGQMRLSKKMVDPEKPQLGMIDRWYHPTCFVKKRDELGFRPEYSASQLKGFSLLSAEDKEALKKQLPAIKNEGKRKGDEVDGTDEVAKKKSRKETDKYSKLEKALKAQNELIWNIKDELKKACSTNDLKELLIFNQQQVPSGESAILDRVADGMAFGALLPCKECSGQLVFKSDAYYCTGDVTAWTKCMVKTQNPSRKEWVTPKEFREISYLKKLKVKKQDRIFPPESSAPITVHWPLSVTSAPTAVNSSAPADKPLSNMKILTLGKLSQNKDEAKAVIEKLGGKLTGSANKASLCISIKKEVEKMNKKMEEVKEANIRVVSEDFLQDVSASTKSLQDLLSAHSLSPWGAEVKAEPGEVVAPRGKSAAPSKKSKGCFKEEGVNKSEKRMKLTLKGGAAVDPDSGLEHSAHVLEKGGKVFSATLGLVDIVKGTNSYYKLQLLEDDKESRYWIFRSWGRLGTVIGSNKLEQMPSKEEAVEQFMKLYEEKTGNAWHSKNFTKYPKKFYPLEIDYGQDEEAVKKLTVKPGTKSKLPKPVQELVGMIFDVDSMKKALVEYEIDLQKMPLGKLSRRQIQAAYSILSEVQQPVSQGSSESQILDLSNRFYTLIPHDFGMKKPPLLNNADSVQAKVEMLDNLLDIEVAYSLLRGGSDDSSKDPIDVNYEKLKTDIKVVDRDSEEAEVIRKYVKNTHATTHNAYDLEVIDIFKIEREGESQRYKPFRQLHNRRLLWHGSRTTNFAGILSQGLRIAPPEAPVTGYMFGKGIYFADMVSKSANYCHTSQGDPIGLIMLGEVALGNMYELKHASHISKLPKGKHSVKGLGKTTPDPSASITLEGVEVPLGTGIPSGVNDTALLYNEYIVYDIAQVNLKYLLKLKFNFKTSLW

Row | inhibition at 10 µM (PARP; [5]) [%] | inhibition at 30 µM (PARP; [6]) [%] | insolubility at assay concentration ([1]; 100 μM) | insolubility at assay concentration ([1]; 30 μM) | SMILES | other results
1 | 58 | 74 | insol. |  | COc1ccc(COc2cccc(C(N)=O)c2)cc1 [NU1006, 3-(4-methoxybenzyloxy)benzamide] | 
2 | 23 | 36 | insol. |  | NC(=O)c1cccc(OCc2ccc(Br)cc2)c1 [NU1014, 3-(4-Bromobenzyloxy)benzamide] | 
3 |  |  | insol. | insol. | NC(=O)c1cccc(OCc2ccccc2[N+](=O)[O-])c1 [NU1042, 3-(2-Nitrobenzyloxy)benzamide] | insolubility at assay concentration ([1]; 10 μM): insol.
4 |  |  | insol. | insol. | NC(=O)c1cccc(OCC2CCCCC2)c1 [NU1008, 3-(cyclohexylmethyloxy)benzamide] | PARP inhibitory activity in words (PARP): some PARP inhibitory activity; insolubility at assay concentration ([1]; 10 μM): insol.
5 | 21 | 40 | insol. |  | NC(=O)c1cccc(OCc2cccc([N+](=O)[O-])c2)c1 [NU1017, 3-(3-Nitrobenzyloxy)benzamide] | 
6 | 30 |  | insol. | insol. | NC(=O)c1cccc(OCCCCCCCCn2cnc3c(Cl)ncnc32)c1 [NU1027, 3-[8-(6-chloropurin-9-yl)octyloxy]benzamide] | 
7 | 15 | 39 | insol. |  | CCCCCCOc1cccc(C(N)=O)c1 [NU1043, 3-hexyloxybenzamide] | 
8 |  |  | insol. | insol. | COC(=O)c1ccc(COc2cccc(C(N)=O)c2)cc1 [NU1041, 3-(4-carboxymethylbenzyloxy)benzamide] | insolubility at assay concentration ([1]; 10 μM): insol.
9 |  |  |  |  | NC(=O)c1ccccc1 [BENZAMIDE, benzamide] | IC50 (L1210 cells [2]; read-out: IC50 INHIBITOR + 100 μM TM (growth inhibition)): 840 ± 120 µM; IC50 (L1210 cells [2]; read-out: IC50 INHIBITOR ALONE (growth inhibition)): 2500 ± 300 µM; DEF10 (TM) (L1210 cells [3]; 1 mM inhibitor): 4.0 ± 0.7; DEF10 (TM) (L1210 cells [3]; 3 mM inhibitor): 6.9 ± 0.2; CC50 at 24 h (in vitro): 6000 ± 1500 µM; concentration above which strand breakage with TM increases significantly ([4]; 150 μM TM, 1 hour): above 3 mM; effect on DNA strand break levels, compound alone ([4]; 20 mM, 24 hour incubation): no significant effect on DNA strand break levels
10 | 33 |  | insol. | insol. | N#Cc1ccc(COc2cccc(C(N)=O)c2)cc1 [NU1037, 3-(4-cyanobenzyloxy)benzamide] | 
11 |  |  |  |  | COc1cccc2c(=O)[nH]c(C)nc12 [NU1063, 8-Methoxy-2-methylquinazolin-4-[3H]-one] | IC50 (PARP): 0.78 µM; PARP inhibitory activity in words (PARP): potent PARP inhibitors
12 | 23 |  | insol. | insol. | NC(=O)c1cccc(OC/C=C/c2ccccc2)c1 [NU1050, 3-(Cinnamyloxy)benzamide] | 
13 | 26 |  | insol. | insol. | NC(=O)c1cccc(OCc2ccc([N+](=O)[O-])cc2)c1 [NU1007, 3-(4-nitrobenzyloxy)benzamide] | 
14 |  |  |  |  | [N-]=[N+]=Nc1ccc(COc2cccc(C(N)=O)c2)cc1 [NU1013, 3-(4-Azidobenzyloxy)benzamide] | inhibition at 10 µM (PARP; [7]): 49%; inhibition at 30 µM (PARP; [8]): 28%; inhibition at 100 µM (PARP; read-out: % Inhibition (PARP), 100 μM): 43%
15 | 3 | 13 |  |  | NC(=O)c1cccc(OCc2ccc(C(F)(F)F)cc2)c1 [NU1036, 3-(4-Trifluoromethylbenzyloxy)benzamide] | inhibition at 100 µM (PARP; [9]): 10%
16 |  |  | insol. |  | NC(=O)c1cccc(OCc2ccc(F)cc2)c1 [NU1015, 3-(4-Fluorobenzyloxy)benzamide] | inhibition at 10 µM (PARP; [7]): 20%; inhibition at 30 µM (PARP; [8]): 52%
17 |  |  |  |  | Cc1nc2c(C(N)=O)cccc2o1 [NU1056, 2-Methylbenzoxazole-4-carboxamide] | IC50 (PARP): 9.5 µM; PARP inhibitory activity in words (PARP): relatively high inhibitory activity even at low concentrations
18 | 87 | 88 |  |  | CC(C)(C)c1nc2c(C(N)=O)cccc2o1 [NU1040, 2-t-butylbenzoxazole-4-carboxamide] | PARP inhibitory activity in words (PARP): relatively high inhibitory activity even at low concentrations; inhibition at 100 µM (PARP; [9]): 93%; IC50 (PARP; unit printed broken, attached to the next cell): 8.4 µM
19 | 26 |  | insol. | insol. | CCCCCCCOc1cccc(C(N)=O)c1 [NU1044, 3-heptyloxybenzamide] | 
20 |  |  | insol. | insol. | CCCCCCCCOc1cccc(C(N)=O)c1 [NU1045, 3-octyloxybenzamide] | insolubility at assay concentration ([1]; 10 μM): insol.
21 |  | 54 |  |  | NC(=O)c1cccc(OCCCCCBr)c1 [NU1019, 3-(5-Bromopentyloxy)benzamide] | inhibition at 100 µM (PARP; [9]): 81%
22 |  |  |  |  | COc1ccc(-c2nc3c(C(N)=O)cccc3o2)cc1 [NU1054, 2-(4-Methoxyphenyl)benzoxazole-4-carboxamide] | IC50 (PARP): 1.1 µM; PARP inhibitory activity in words (PARP): relatively high inhibitory activity even at low concentrations
23 | 82 |  |  |  | NC(=O)c1cccc2oc(-c3ccccc3)nc12 [NU1051, 2-Phenylbenzoxazole-4-carboxamide] | IC50 (PARP): 2.1 µM; PARP inhibitory activity in words (PARP): relatively high inhibitory activity even at low concentrations
